In general, EC50 refers to the concentration that produces a half-maximal response.

Activity calls are given as the source filed them. No rule for the calls is given here.

Experimental findings from PubChem BioAssay AID743425 (Vanderbilt Specialized Chemistry Center, 2014) are described below.

Experiment [1] addresses Metabotropic glutamate receptor 8 (Homo sapiens) (UniProt O00222). The experiment is described as follows: mGlu8 positive allosteric modulator potency, dose response, rat receptor, calcium (AID 743425). The following applies: rat mGlu8, Fluo-4 calcium, glutamate EC20 potentiation.
Experiment [2] concerns the target Metabotropic glutamate receptor 8 (Rattus norvegicus) (UniProt P70579). The description is as above. The following applies: rat mGlu8, Fluo-4 calcium, glutamate EC20 potentiation; hits give high values.

Chain of Metabotropic glutamate receptor 8 (Homo sapiens) (O00222 whole entry, looked up): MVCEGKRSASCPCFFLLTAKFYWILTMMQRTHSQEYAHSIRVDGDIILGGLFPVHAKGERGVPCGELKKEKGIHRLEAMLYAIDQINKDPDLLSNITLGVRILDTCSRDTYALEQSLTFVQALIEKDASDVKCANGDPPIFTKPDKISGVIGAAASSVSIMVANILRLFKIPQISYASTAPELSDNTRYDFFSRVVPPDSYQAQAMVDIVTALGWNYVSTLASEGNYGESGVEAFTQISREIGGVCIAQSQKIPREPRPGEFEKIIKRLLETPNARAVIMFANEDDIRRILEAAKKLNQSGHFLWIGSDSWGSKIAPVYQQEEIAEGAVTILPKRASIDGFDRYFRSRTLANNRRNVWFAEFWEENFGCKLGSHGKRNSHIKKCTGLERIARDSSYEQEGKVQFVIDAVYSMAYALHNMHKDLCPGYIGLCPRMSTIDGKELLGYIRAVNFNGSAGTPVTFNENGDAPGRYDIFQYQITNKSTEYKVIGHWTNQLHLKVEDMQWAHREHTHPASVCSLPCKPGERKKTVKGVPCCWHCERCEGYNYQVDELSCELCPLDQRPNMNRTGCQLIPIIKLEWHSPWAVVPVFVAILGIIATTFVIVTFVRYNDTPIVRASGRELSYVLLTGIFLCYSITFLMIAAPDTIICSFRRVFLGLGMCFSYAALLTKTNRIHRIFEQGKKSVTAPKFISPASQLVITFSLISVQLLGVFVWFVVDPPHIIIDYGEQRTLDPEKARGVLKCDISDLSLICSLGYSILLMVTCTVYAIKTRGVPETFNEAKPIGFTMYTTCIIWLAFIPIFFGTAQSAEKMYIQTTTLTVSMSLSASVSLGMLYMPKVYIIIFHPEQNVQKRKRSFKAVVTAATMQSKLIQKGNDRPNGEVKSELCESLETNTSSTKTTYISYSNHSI
Chain of Metabotropic glutamate receptor 8 (Rattus norvegicus) (P70579 whole entry, looked up): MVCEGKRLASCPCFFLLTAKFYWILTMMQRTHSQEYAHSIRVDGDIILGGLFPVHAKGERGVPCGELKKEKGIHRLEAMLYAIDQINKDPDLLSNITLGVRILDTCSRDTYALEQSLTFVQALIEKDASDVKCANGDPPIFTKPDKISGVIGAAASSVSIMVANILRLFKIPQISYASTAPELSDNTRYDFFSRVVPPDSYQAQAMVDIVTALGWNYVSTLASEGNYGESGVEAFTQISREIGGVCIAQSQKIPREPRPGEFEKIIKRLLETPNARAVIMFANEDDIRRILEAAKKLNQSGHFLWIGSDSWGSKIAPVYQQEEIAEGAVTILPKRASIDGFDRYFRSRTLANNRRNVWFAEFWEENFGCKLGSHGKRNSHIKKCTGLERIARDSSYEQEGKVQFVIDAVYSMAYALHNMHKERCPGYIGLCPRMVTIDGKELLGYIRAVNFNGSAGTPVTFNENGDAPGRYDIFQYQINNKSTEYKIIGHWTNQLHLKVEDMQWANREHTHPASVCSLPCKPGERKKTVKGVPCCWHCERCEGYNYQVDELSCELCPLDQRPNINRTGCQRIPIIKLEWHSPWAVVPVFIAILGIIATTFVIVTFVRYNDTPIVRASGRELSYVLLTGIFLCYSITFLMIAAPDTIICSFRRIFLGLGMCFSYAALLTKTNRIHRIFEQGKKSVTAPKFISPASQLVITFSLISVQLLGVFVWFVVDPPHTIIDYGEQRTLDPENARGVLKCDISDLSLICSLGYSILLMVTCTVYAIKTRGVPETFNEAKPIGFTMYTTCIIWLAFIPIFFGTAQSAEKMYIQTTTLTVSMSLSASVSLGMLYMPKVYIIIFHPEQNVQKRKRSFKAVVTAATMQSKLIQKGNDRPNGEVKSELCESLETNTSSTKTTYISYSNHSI

Regarding `CC(=O)Nc1ccc(SCC(=O)c2cc(C)n(-c3ccccc3F)c2C)cc1`, in experiment [1], the EC50 was 3.16 µM.

Consider `CC(=O)Nc1ccc(SCC(=O)c2cc(C)n(CC3CCCO3)c2C)cc1` (stereo not drawn), for which the concentration giving a half-maximal response (EC50) in experiment [1] was 3.44 µM.

Consider `CCOc1ccc(-n2c(C)cc(C(=O)CSc3ccc(OC)cc3)c2C)cc1`, for which, in experiment [1], the EC50 is 3.16 µM.

For `COc1ccc(CSCC(=O)c2cc(C)n(-c3ccc(OC(F)F)cc3)c2C)cc1`, the concentration for a half-maximal effect (EC50) in experiment [1] is 0.23 µM.

As for `CC(=O)Nc1ccc(SCC(=O)c2cc(C)n(-c3cccc(F)c3)c2C)cc1`, the EC50 in experiment [1] is 1.5 µM.

With `COC(=O)c1ccc(-n2c(C)cc(C(=O)CNc3ccc(C(=O)O)cc3)c2C)cc1`, the “% glutamate max” value in experiment [2] is “inactive”.

In the case of `COC(=O)c1ccc(-n2c(C)cc(C(=O)CSCc3cccc(C)c3)c2C)cc1`, in experiment [1], the concentration for a half-maximal effect (EC50) is 3.16 µM.

`CC(=O)Nc1ccc(SCC(=O)c2cc(C)n(-c3nc(C)cs3)c2C)cc1`: the EC50 in experiment [1] is 10 µM.

In the case of `Cc1ccc(CSCC(=O)c2cc(C)n(-c3ccc(OC(F)F)cc3)c2C)cc1`, in experiment [1], the EC50 is 3.16 µM.

Turning to `CC(=O)Nc1ccc(SCC(=O)c2cc(C)n(-c3ccc(S(N)(=O)=O)cc3)c2C)cc1`, in experiment [1], the EC50 is 3.16 µM.

On to `CCn1c(C)cc(C(=O)CSc2ccc(NC(C)=O)cc2)c1C`, for which, in experiment [1], the EC50 is 10 µM.

For `CC(=O)Nc1ccc(OCC(=O)c2cc(C)n(-c3ccc(OC(F)F)cc3)c2C)cc1`, the EC50 in experiment [1] was 3.5 µM.

With `CCOc1ccc(-n2c(C)cc(C(=O)CSCc3cccc(C)c3)c2C)cc1`, the EC50 in experiment [1] is 3.16 µM.

As to `COc1ccc(SCC(=O)c2cc(C)n(-c3ccc(OC(F)F)cc3)c2C)cc1`, the half-maximal effective concentration (EC50) in experiment [1] is 3.16 µM.

Consider `COC(=O)c1ccc(-n2c(C)cc(C(=O)CSc3ccc(NC(C)=O)cc3)c2C)cc1`, for which the EC50 in experiment [1] was 0.93 µM.

Consider `COC(=O)c1ccc(-n2c(C)cc(C(=O)CSc3ccc(N(C)C(C)=O)cc3)c2C)cc1`, for which the EC50 in experiment [1] is 3.3 µM.

On to `COC(=O)c1ccc(-n2c(C)cc(C(=O)COc3ccc(OC(C)=O)cc3)c2C)cc1`, for which the EC50 in experiment [1] is 10 µM.

With `CCOc1ccc(-n2c(C)cc(C(=O)CSCc3ccc(OC)cc3)c2C)cc1`, the EC50 in experiment [1] is 3.16 µM.

As to `CC(=O)Nc1ccc(SCC(=O)c2cc(C)n(CCc3cccs3)c2C)cc1`, the EC50 in experiment [1] is 1.6 µM.

For the compound `COC(=O)c1ccc(-n2c(C)cc(C(=O)COc3cccc(N(C)C)c3)c2C)cc1`, in experiment [2], the “% glutamate max” value is “inactive”.

In the case of `CC(=O)Nc1ccc(SCC(=O)c2cc(C)n(CC3COc4ccccc4O3)c2C)cc1` (stereo not drawn), the EC50 in experiment [1] was 1.14 µM.

Consider `COC(=O)c1ccc(-n2c(C)cc(C(=O)CSCc3ccc(OC)cc3)c2C)cc1`, for which the EC50 in experiment [1] was 1.6 µM.

Turning to `COC(=O)c1ccc(-n2c(C)cc(C(=O)COc3ccc(NC(C)=O)cc3)c2C)cc1`, the EC50 in experiment [1] was 3.4 µM.
